Reference: patent US20260042764A1, “COMPOSITIONS AND METHODS FOR INHIBITION OF KRAS” (TheRas, Inc., priority 2022, published 2026)

The compounds below were run against T1, Avi-KRAS G12D (1-169) GppNHp/RAF1 RBD-3xFLAG (52-151) (Homo sapiens, UniProt P01116, G12D) (assay: Raf1-KRAS G12D-GppNHP disruption HTRF assay (Biological Example 1)). Conditions: KRAS G12D, GppNHp-loaded; Table 11.
T1 construct: Avi-KRAS G12D (1-169)
Format: binding
Method in brief: (§1)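 Read-out is HTRF signal of the KRAS–RAF1 RBD complex, reported as percentage of activity relative to DMSO (100%). Protein mix and detection reagents each incubated 1 h at room temperature with 700 rpm shaking. Buffer: 50 mM Tris pH 7.5, 100 mM NaCl, 5 mM MgCl2, 0.1% BSA, 0.01% Tween, 10% DMSO.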

T1 sequence (P01116 1-169 isoform P01116-2 G12D): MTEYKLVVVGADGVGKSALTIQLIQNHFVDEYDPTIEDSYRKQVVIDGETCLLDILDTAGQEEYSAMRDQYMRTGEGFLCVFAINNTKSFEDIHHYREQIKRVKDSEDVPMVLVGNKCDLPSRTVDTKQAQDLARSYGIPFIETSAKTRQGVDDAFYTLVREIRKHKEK

| SMILES | IC50 |
| --- | --- |
| N#Cc1c(N)sc2c(F)ccc(-c3c(C(F)(F)F)cc4c(N(CCO)CCO)nc(OC[C@@]56CCCN5C[C@H](F)C6)nc4c3F)c12 [Compound 174] | < 100 nM |
| CCN(CCCO)c1nc(OC[C@@]23CCCN2C[C@H](F)C3)nc2c(F)c(-c3ccc(F)c4sc(N)c(C#N)c34)c(C(F)(F)F)cc12 [Compound 175] | 100 to 1000 nM |
| CCN(CCO)c1nc(OCC23CCCN2CCC3)nc2c(F)c(-c3ccc(F)c4sc(N)c(C#N)c34)c(C(F)(F)F)cc12 [Compound 176] | < 100 nM |
| CCN(CCO)c1nc(OC[C@@H]2C[C@@H](F)CN2C)nc2c(F)c(-c3ccc(F)c4sc(N)c(C#N)c34)c(C(F)(F)F)cc12 [Compound 177] | 100 to 1000 nM |
| CCN(CCO)c1nc(OC[C@@H]2C[C@@H](OC)CN2C)nc2c(F)c(-c3ccc(F)c4sc(N)c(C#N)c34)c(C(F)(F)F)cc12 [Compound 178] | 100 to 1000 nM |
| CCN(CCO)c1nc(OC[C@@H]2CCCN2C)nc2c(F)c(-c3ccc(F)c4sc(N)c(C#N)c34)c(C(F)(F)F)cc12 [Compound 179] | 100 to 1000 nM |

Each compound was assayed against T2, Avi-KRAS G12R (1-169) GppNHp/RAF1 RBD-3xFLAG (52-151) (Homo sapiens, UniProt P01116, G12R) (assay: Raf1-KRAS G12R-GppNHP disruption HTRF assay (Biological Example 1)). Conditions: KRAS G12R, GppNHp-loaded; Table 11.
T2 construct: Avi-KRAS G12R (1-169)
Format: binding
Method in brief: as §1

T2 sequence (P01116 1-169 isoform P01116-2 G12R): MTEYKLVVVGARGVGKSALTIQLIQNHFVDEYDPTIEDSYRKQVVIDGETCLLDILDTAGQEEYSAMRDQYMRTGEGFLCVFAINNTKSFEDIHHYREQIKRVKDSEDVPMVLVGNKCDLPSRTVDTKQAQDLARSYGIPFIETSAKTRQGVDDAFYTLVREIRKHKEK

| SMILES | IC50 |
| --- | --- |
| N#Cc1c(N)sc2c(F)ccc(-c3c(C(F)(F)F)cc4c(N(CCO)CCO)nc(OC[C@@]56CCCN5C[C@H](F)C6)nc4c3F)c12 [Compound 174] | < 100 nM |
| CCN(CCCO)c1nc(OC[C@@]23CCCN2C[C@H](F)C3)nc2c(F)c(-c3ccc(F)c4sc(N)c(C#N)c34)c(C(F)(F)F)cc12 [Compound 175] | 100 to 1000 nM |
| CCN(CCO)c1nc(OCC23CCCN2CCC3)nc2c(F)c(-c3ccc(F)c4sc(N)c(C#N)c34)c(C(F)(F)F)cc12 [Compound 176] | 100 to 1000 nM |
| CCN(CCO)c1nc(OC[C@@H]2C[C@@H](F)CN2C)nc2c(F)c(-c3ccc(F)c4sc(N)c(C#N)c34)c(C(F)(F)F)cc12 [Compound 177] | 100 to 1000 nM |
| CCN(CCO)c1nc(OC[C@@H]2C[C@@H](OC)CN2C)nc2c(F)c(-c3ccc(F)c4sc(N)c(C#N)c34)c(C(F)(F)F)cc12 [Compound 178] | 100 to 1000 nM |
| CCN(CCO)c1nc(OC[C@@H]2CCCN2C)nc2c(F)c(-c3ccc(F)c4sc(N)c(C#N)c34)c(C(F)(F)F)cc12 [Compound 179] | 100 to 1000 nM |

These compounds were tested against T3, Avi-KRAS G12V (1-169) GppNHp/RAF1 RBD-3xFLAG (52-151) (Homo sapiens, UniProt P01116, G12V) (assay: Raf1-KRAS G12V-GppNHP disruption HTRF assay (Biological Example 1)). Conditions: KRAS G12V, GppNHp-loaded; Table 11.
T3 construct: Avi-KRAS G12V (1-169)
Format: binding
Method in brief: as §1

T3 sequence (P01116 1-169 isoform P01116-2 G12V): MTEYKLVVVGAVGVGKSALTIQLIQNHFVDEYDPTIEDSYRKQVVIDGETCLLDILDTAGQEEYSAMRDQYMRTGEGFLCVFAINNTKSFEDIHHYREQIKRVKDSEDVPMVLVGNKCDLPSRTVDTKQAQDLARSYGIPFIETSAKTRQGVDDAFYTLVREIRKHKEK

| SMILES | IC50 |
| --- | --- |
| N#Cc1c(N)sc2c(F)ccc(-c3c(C(F)(F)F)cc4c(N(CCO)CCO)nc(OC[C@@]56CCCN5C[C@H](F)C6)nc4c3F)c12 [Compound 174] | 100 to 1000 nM |
| CCN(CCCO)c1nc(OC[C@@]23CCCN2C[C@H](F)C3)nc2c(F)c(-c3ccc(F)c4sc(N)c(C#N)c34)c(C(F)(F)F)cc12 [Compound 175] | 100 to 1000 nM |
| CCN(CCO)c1nc(OCC23CCCN2CCC3)nc2c(F)c(-c3ccc(F)c4sc(N)c(C#N)c34)c(C(F)(F)F)cc12 [Compound 176] | 100 to 1000 nM |
| CCN(CCO)c1nc(OC[C@@H]2C[C@@H](F)CN2C)nc2c(F)c(-c3ccc(F)c4sc(N)c(C#N)c34)c(C(F)(F)F)cc12 [Compound 177] | 100 to 1000 nM |
| CCN(CCO)c1nc(OC[C@@H]2C[C@@H](OC)CN2C)nc2c(F)c(-c3ccc(F)c4sc(N)c(C#N)c34)c(C(F)(F)F)cc12 [Compound 178] | 1000 to 10000 nM |
| CCN(CCO)c1nc(OC[C@@H]2CCCN2C)nc2c(F)c(-c3ccc(F)c4sc(N)c(C#N)c34)c(C(F)(F)F)cc12 [Compound 179] | 100 to 1000 nM |

What follows are compounds tested against T4, Avi-KRAS WT (1-169) GppNHp/RAF1 RBD-3xFLAG (52-151) (Homo sapiens, UniProt P01116) (assay: Raf1-KRAS WT-GppNHP disruption HTRF assay (Biological Example 1)). Conditions: KRAS WT, GppNHp-loaded; Table 11.
T4 construct: Avi-KRAS WT (1-169)
Format: binding
Method in brief: as §1

T4 sequence (P01116 1-169 isoform P01116-2): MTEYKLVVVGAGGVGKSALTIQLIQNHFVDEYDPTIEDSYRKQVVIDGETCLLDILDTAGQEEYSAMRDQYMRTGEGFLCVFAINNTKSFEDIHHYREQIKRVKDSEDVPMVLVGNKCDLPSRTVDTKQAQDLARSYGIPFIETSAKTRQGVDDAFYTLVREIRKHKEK

| SMILES | IC50 |
| --- | --- |
| N#Cc1c(N)sc2c(F)ccc(-c3c(C(F)(F)F)cc4c(N(CCO)CCO)nc(OC[C@@]56CCCN5C[C@H](F)C6)nc4c3F)c12 [Compound 174] | < 100 nM |
| CCN(CCCO)c1nc(OC[C@@]23CCCN2C[C@H](F)C3)nc2c(F)c(-c3ccc(F)c4sc(N)c(C#N)c34)c(C(F)(F)F)cc12 [Compound 175] | 100 to 1000 nM |
| CCN(CCO)c1nc(OCC23CCCN2CCC3)nc2c(F)c(-c3ccc(F)c4sc(N)c(C#N)c34)c(C(F)(F)F)cc12 [Compound 176] | 100 to 1000 nM |
| CCN(CCO)c1nc(OC[C@@H]2C[C@@H](F)CN2C)nc2c(F)c(-c3ccc(F)c4sc(N)c(C#N)c34)c(C(F)(F)F)cc12 [Compound 177] | 100 to 1000 nM |
| CCN(CCO)c1nc(OC[C@@H]2C[C@@H](OC)CN2C)nc2c(F)c(-c3ccc(F)c4sc(N)c(C#N)c34)c(C(F)(F)F)cc12 [Compound 178] | 1000 to 10000 nM |
| CCN(CCO)c1nc(OC[C@@H]2CCCN2C)nc2c(F)c(-c3ccc(F)c4sc(N)c(C#N)c34)c(C(F)(F)F)cc12 [Compound 179] | 100 to 1000 nM |

The compounds below were run on GP2d cells (KRAS G12D) (assay: Cell-based pERK HTRF assay in GP2d cell (Biological Example 2)). Conditions: GP2d (KRAS G12D) cells, pERK HTRF.
Method in brief: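 Cells grown in DMEM with 10% FBS were exposed to compound for 60 min at 0.25% DMSO, using a 9-point half-log series starting at 1 μM or 100 nM. Lysates were then mixed with d2 and Eu cryptate antibodies for 4–24 h at room temperature, and pERK was read by HTRF.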

| SMILES | IC50 |
| --- | --- |
| CCN(CCO)c1nc(OC[C@@H]2C[C@@H](OC)CN2C)nc2c(F)c(-c3ccc(F)c4sc(N)c(C#N)c34)c(C(F)(F)F)cc12 [Compound 178] | < 100 nM |

Same assay, conditions: GP2d, GP2d (KRAS G12D) cells, pERK HTRF

| SMILES | IC50 |
| --- | --- |
| N#Cc1c(N)sc2c(F)ccc(-c3c(C(F)(F)F)cc4c(N(CCO)CCO)nc(OC[C@@]56CCCN5C[C@H](F)C6)nc4c3F)c12 [Compound 174] | < 100 nM |
| CCN(CCCO)c1nc(OC[C@@]23CCCN2C[C@H](F)C3)nc2c(F)c(-c3ccc(F)c4sc(N)c(C#N)c34)c(C(F)(F)F)cc12 [Compound 175] | < 100 nM |
| CCN(CCO)c1nc(OCC23CCCN2CCC3)nc2c(F)c(-c3ccc(F)c4sc(N)c(C#N)c34)c(C(F)(F)F)cc12 [Compound 176] | < 100 nM |
| CCN(CCO)c1nc(OC[C@@H]2C[C@@H](F)CN2C)nc2c(F)c(-c3ccc(F)c4sc(N)c(C#N)c34)c(C(F)(F)F)cc12 [Compound 177] | < 100 nM |
| CCN(CCO)c1nc(OC[C@@H]2CCCN2C)nc2c(F)c(-c3ccc(F)c4sc(N)c(C#N)c34)c(C(F)(F)F)cc12 [Compound 179] | < 100 nM |
